Assays:
murine bronchial ring [1] = assay: Ex vivo bronchial ring contraction (Mulvany myograph) after chronic treatment, methacholine-induced bronchoconstriction; assay type: in vivo, mouse; conditions: asthmatic mice
Method: (§1) Seven-week old mice were sensitized by cutaneous route to house dust mite (HDM) extracts on DO, 7, 14 and 21. After this skin sensitization phase to the allergen, the mice receive the allergen by the nasal route (challenge phase) on D27, 28, 29, 34, 35 and 36 to induce bronchial exacerbation. This severe allergic asthma model has been characterized as mimicking human pathology (Dilasser et al. Thorax 2021).
(§2) BIG101 (batch RL11T1204A0) was administered to the mice in drinking water 7 days a week, at a dose of 50 mg/kg/day. The drinking water containing BI0101 was replaced twice weekly until the animals were sacrificed.
(§3) The evaluation of the effect of chronic administration of BI0101 treatment on ex vivo murine bronchial ring contraction was carried out in an isolated organ chamber (isometric tension measurement, Mulvany myograph, DMT, Hinnerup, Denmark) (André-Grégoire et al., 2018).
(§4) The bronchi are collected, cleaned, cut into rings and set up in the Mulvany myograph. The rings are pre-stretched and then stimulated with 60 mM KCl until the contractile response amplitude has stabilized (2 or 3 stimulations) before the start of each experimental protocol. […]

murine bronchial ring [2] = assay: Ex vivo bronchial ring contraction (Mulvany myograph) after chronic treatment, serotonin-induced bronchoconstriction; assay type: in vivo, mouse; conditions: asthmatic mice
Method: as §1, §2, §3, §4

bronchial ring [3] = assay: Acute administration in the vessel containing the bronchial ring, contractile response to methacholine; set-up: species or system mouse; conditions: p=ns vs internal control without BI0101
bronchial ring [4] = assay: Acute administration in the vessel containing the bronchial ring, contractile response to serotonin; set-up: species or system mouse; conditions: p=ns vs internal control without BI0101
5-HT1A receptor = assay: Real-time PCR gene expression in bronchi after chronic treatment; assay type: in vivo, mouse; conditions: chronic treatment 50 mg/kg/day, D38, p<0.05
Method: (§5) Seven-week old mice were sensitized by cutaneous route to house dust mite (HDM) extracts on DO, 7, 14 and 21. After this skin sensitization phase to the allergen, the mice receive the allergen by the nasal route (challenge phase) on D27, 28, 29, 34, 35 and 36 to induce bronchial exacerbation. This severe allergic asthma model has been characterized as mimicking human pathology ([…] et al. Thorax 2021). BIG101 (batch RL11T1204A0) was administered to the mice in drinking water 7 days a week, at a dose of 50 mg/kg/day. The drinking water containing BI0101 was replaced twice weekly until the animals were sacrificed. On […], the bronchi of healthy non-asthmatic mice (control; n=10), non-asthmatic control mice treated with BI0101 (controls+BIO101; n=10), asthmatic mice (Asthma; n=10) and asthmatic mice treated with BI0101 (Asthma+BIO101; n=10) were collected. After RNA extraction from these tissues (Trizol©, ThermoFisher cat. 15596018), an analysis of serotonin receptor (5-HT1A, 5-HT1B, 5-HT2A, 5-HT2B and 5-HT7) and serotonin transporter (5HTT) expression was evaluated with real-time PCR (TaqManTM, Universal PCR MasterMix, ThermoFisher cat. 4304437). The list of ThermoFisher Scientific commercial test references used for real-time PCR to obtain the results for each of the genes is given in Table 1 below: […]

5-HT1B = assay: as above; assay type: in vivo, mouse; conditions: healthy or asthmatic mice, chronic treatment 50 mg/kg/day
Method: as §5

5-HT2A = assay: as above; assay type: in vivo, mouse; conditions: healthy or asthmatic mice, chronic treatment 50 mg/kg/day
Method: as §5

5-HT2B = assay: as above; assay type: in vivo, mouse; conditions: healthy or asthmatic mice, chronic treatment 50 mg/kg/day
Method: as §5

5-HT7 = assay: as above; assay type: in vivo, mouse; conditions: healthy or asthmatic mice, chronic treatment 50 mg/kg/day
Method: as §5

5-HTT = assay: as above; assay type: in vivo, mouse; conditions: healthy or asthmatic mice, chronic treatment 50 mg/kg/day
Method: as §1, with “([…]” for “(Dilasser”, “2021). BIG101 (batch RL11T1204A0) was administered to the mice in drinking water 7 days a week, at a dose of 50 mg/kg/day. The drinking water containing BI0101 was replaced twice weekly until the animals were sacrificed.” for “2021).”

[5] = tested on: mouse model of severe allergic asthma; assay: Histological analysis of lung sections stained with hematoxylin and eosin; assay type: in vivo; conditions: chronic treatment 50 mg/kg/day
Method: as §1, §2

[6] = tested on: mouse model of severe allergic asthma; assay: Bronchoalveolar fluid cellularity; assay type: in vivo
Method: Seven-week old mice were sensitized by cutaneous route to house dust mite (HDM) extracts on DO, 7, 14 and 21. After this skin sensitization phase to the allergen, the mice receive the allergen by the nasal route (challenge phase) on D27, 28, 29, 34, 35 and 36 to induce bronchial exacerbation. This severe allergic asthma model has been characterized as mimicking human pathology ([…] et al. Thorax 2021). BIG101 (batch RL11T1204A0) was administered to the mice in drinking water 7 days a week, at a dose of 50 mg/kg/day. The drinking water containing BI0101 was replaced twice weekly until the animals were sacrificed. On […], sterile PBS (between 200 μL and 1 mL) was administered by the intratracheal route to the mice using a catheter. The bronchoalveolar fluid (BALF) cells and supernatant are retrieved and separated by centrifugation. The total number of cells was counted on Kova slides by optical microscopy. The cellularity of each sample was evaluated by calculating the ratio of the total number of cells counted, divided by the volume of bronchoalveolar fluid. The cellularity represents the infiltrate of immune cells (macrophages, lymphocytes, eosinophils and neutrophils).

[7] = tested on: mouse model of severe allergic asthma; assay: Respiratory function by plethysmography (Penh) in response to methacholine; assay type: in vivo
Method: as §1, §2
In order to study whether the reduction of inflammation in BALF could induce functional improvement after severe asthma induction, respiratory function was evaluated by plethysmography. This technique makes it possible to carry out a longitudinal study of respiratory capacity and also expiratory pause time (Penh) non-invasively. Breathing-induced flow and pressure changes are measured before and after exposure to nebulization with increasing doses of NaCl followed by methacholine. […]
The pressure variations measured relative to a reference chamber make it possible to define various respiratory parameters such as inspiratory and expiratory pressure peaks and times, and also a unitless parameter referred to as Penh (enhanced Pause) which makes it possible to evaluate bronchoconstriction. Indeed, the Penh value, calculated from the pressure signal in the chamber (Pb), is an important index to obtain, because changes in the Penh value evolve in parallel with those of respiratory resistance and therefore it represents a predictive parameter of changes in resistive properties of the respiratory system (Hamelmann et al., 1997; Bergren, 2001; Onclinx et al., 2003). The following values were calculated from the filtered Pb: the maximum change in Pb during expiration (PEP for “Peak Expiratory Pressure”), the maximum change in Pb during inspiration (PIP for “Peak Inspiratory Pressure”), and the time interval (TR). The Penh value was then calculated as follows: […]

[8] = chronic treatment 50 mg/kg/day in drinking water, D38, Asthma vs Asthma+BIO101 p<0.0001

## CC(C)(O)CC[C@@H](O)[C@](C)(O)[C@H]1CC[C@@]2(O)C3=CC(=O)[C@@H]4C[C@@H](O)[C@@H](O)C[C@]4(C)[C@H]3CC[C@]12C [BI0101, 20-hydroxyecdysone]
Murine bronchial ring [1]; [8]
  methacholine-induced bronchoconstriction: significantly decreases
Murine bronchial ring [1]; chronic treatment 50 mg/kg/day, Asthma+BIO101 vs Control p=0.0025
  prevention of exacerbated bronchial airway reactivity (methacholine): does not prevent
Murine bronchial ring [2]; [8]
  serotonin-induced bronchoconstriction: significantly reduces
Murine bronchial ring [2]; chronic treatment 50 mg/kg/day, Asthma+BIO101 vs Control p=0.9997
  prevention of exacerbated bronchial airway reactivity (serotonin): completely prevents
Bronchial ring [3]
  contractile response to methacholine: 0.41±0.25 mN
Bronchial ring [4]
  contractile response to serotonin: 0.29±0.14 mN
5-HT1A receptor; asthmatic mice (asthma+BIO101)
  5-HT1A receptor gene expression decrease in bronchi: −69±3%
5-HT1A receptor; healthy mice (control+BIO101)
  5-HT1A receptor gene expression decrease in bronchi: −49%±12%
5-HT1B
  5-HT1B gene expression in bronchi: does not induce any modification
5-HT2A
  5-HT2A gene expression in bronchi: does not induce any modification
5-HT2B
  5-HT2B gene expression in bronchi: does not induce any modification
5-HT7
  5-HT7 gene expression in bronchi: does not induce any modification
5-HTT
  5-HTT (serotonin transporter) gene expression in bronchi: does not induce any modification
[5]; asthmatic mice
  increase in bronchial muscle mass and epithelial barrier dysfunction associated with severe asthma: appear to be less substantial
  peribronchial and perivascular inflammation: reduces
[5]; healthy mice (control)
  effect on lung histology: has no effect
[6]; asthmatic mice treated with BI0101 vs asthmatic mice, D38, p=ns
  change of BALF cellularity (inflammation present in BALFs): −39.8%
[6]; control mice treated with BI0101, D38, p=ns vs untreated control
  BALF cellularity (total number of cells divided by volume of bronchoalveolar fluid): 260±64
[7]; asthmatic mice treated with BI0101, 50 mg/kg/day, 40 mg/ml of methacholine
  Penh value: 9.81±1.1
[7]; asthmatic mice treated with BI0101 vs asthmatic mice, 40 mg/ml of methacholine, p<0.05
  reduction of the Penh value: 18.1%
[7]; healthy control mice treated with BI0101
  effect on respiratory function (Penh, methacholine aerosol): does not appear to have an effect
